test system: test plant species; test: Post-emergent herbicidal activity test (greenhouse, foliar spray, visual growth reduction); assay type: in vivo; settings: post-emergence, 336 h, ECHCG: barnyardgrass (Echinochloa crus-galli), 140 g ai/ha, 14 days after application, read-out: Visual Growth Reduction (%) 14 Days After Application, ECHCG
Summary of the method: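 Seedlings were raised 7-21 d in a greenhouse under a 15 h photoperiod until the first or second true leaf. Each compound, dissolved in acetone:DMSO 97:3 and diluted into a surfactant-containing spray mixture, was then applied at 187 L/ha. Plants were subirrigated, and growth reduction was scored visually at 14 d.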

Compound	pest or weed control at 140 g/ha [%]
COC(=O)c1nc(-c2ccc(N)cc2)c(F)cc1Cl [F247, Methyl 6-(4-aminophenyl)-3-chloro-5-fluoropicolinate]	0 to 29
COC(=O)c1nc(-c2cc(Cl)c(C(F)(F)F)cc2C)ccc1Cl [F371, Methyl 3-chloro-6-(5-chloro-2-methyl-4-(trifluoromethyl)phenyl)picolinate]	0 to 29

same assay, conditions: post-emergence, 336 h, IPOHE: ivy-leaf morning glory (Ipomoea hederacea), 140 g ai/ha, 14 days after application, read-out: Visual Growth Reduction (%) 14 Days After Application, IPOHE

Compound	pest or weed control at 140 g/ha [%]
COC(=O)c1nc(-c2ccc(N)cc2)c(F)cc1Cl [F247, Methyl 6-(4-aminophenyl)-3-chloro-5-fluoropicolinate]	0 to 29
COC(=O)c1nc(-c2cc(Cl)c(C(F)(F)F)cc2C)ccc1Cl [F371, Methyl 3-chloro-6-(5-chloro-2-methyl-4-(trifluoromethyl)phenyl)picolinate]	95 to 100

same assay, conditions: post-emergence, 336 h, KCHSC: kochia (Bassia scoparia), 140 g ai/ha, 14 days after application, read-out: Visual Growth Reduction (%) 14 Days After Application, KCHSC

Compound	pest or weed control at 140 g/ha [%]
COC(=O)c1nc(-c2ccc(N)cc2)c(F)cc1Cl [F247, Methyl 6-(4-aminophenyl)-3-chloro-5-fluoropicolinate]	0 to 29
COC(=O)c1nc(-c2cc(Cl)c(C(F)(F)F)cc2C)ccc1Cl [F371, Methyl 3-chloro-6-(5-chloro-2-methyl-4-(trifluoromethyl)phenyl)picolinate]	0 to 29

same assay, conditions: post-emergence, 336 h, ORYSA: rice (Oryza sativa), 140 g ai/ha, 14 days after application, read-out: Visual Growth Reduction (%) 14 Days After Application, ORYSA

Compound	pest or weed control at 140 g/ha [%]
COC(=O)c1nc(-c2ccc(N)cc2)c(F)cc1Cl [F247, Methyl 6-(4-aminophenyl)-3-chloro-5-fluoropicolinate]	0 to 29
COC(=O)c1nc(-c2cc(Cl)c(C(F)(F)F)cc2C)ccc1Cl [F371, Methyl 3-chloro-6-(5-chloro-2-methyl-4-(trifluoromethyl)phenyl)picolinate]	0 to 29

same assay, conditions: post-emergence, 336 h, SETFA: giant foxtail (Setaria faberi), 140 g ai/ha, 14 days after application, read-out: Visual Growth Reduction (%) 14 Days After Application, SETFA

Compound	pest or weed control at 140 g/ha [%]
COC(=O)c1nc(-c2ccc(N)cc2)c(F)cc1Cl [F247, Methyl 6-(4-aminophenyl)-3-chloro-5-fluoropicolinate]	0 to 29
COC(=O)c1nc(-c2cc(Cl)c(C(F)(F)F)cc2C)ccc1Cl [F371, Methyl 3-chloro-6-(5-chloro-2-methyl-4-(trifluoromethyl)phenyl)picolinate]	0 to 29

same assay, conditions: post-emergence, 336 h, SORVU: grain sorghum (Sorghum vulgare), 140 g ai/ha, 14 days after application, read-out: Visual Growth Reduction (%) 14 Days After Application, SORVU

Compound	pest or weed control at 140 g/ha [%]
COC(=O)c1nc(-c2ccc(N)cc2)c(F)cc1Cl [F247, Methyl 6-(4-aminophenyl)-3-chloro-5-fluoropicolinate]	0 to 29
COC(=O)c1nc(-c2cc(Cl)c(C(F)(F)F)cc2C)ccc1Cl [F371, Methyl 3-chloro-6-(5-chloro-2-methyl-4-(trifluoromethyl)phenyl)picolinate]	75 to 84

same assay, conditions: post-emergence, 336 h, STEME: common chickweed (Stellaria media), 140 g ai/ha, 14 days after application, read-out: Visual Growth Reduction (%) 14 Days After Application, STEME

Compound	pest or weed control at 140 g/ha [%]
COC(=O)c1nc(-c2ccc(N)cc2)c(F)cc1Cl [F247, Methyl 6-(4-aminophenyl)-3-chloro-5-fluoropicolinate]	0 to 29
COC(=O)c1nc(-c2cc(Cl)c(C(F)(F)F)cc2C)ccc1Cl [F371, Methyl 3-chloro-6-(5-chloro-2-methyl-4-(trifluoromethyl)phenyl)picolinate]	0 to 29

same assay, conditions: post-emergence, 336 h, TRZAS: wheat, spring (Triticum aestivum), 140 g ai/ha, 14 days after application, read-out: Visual Growth Reduction (%) 14 Days After Application, TRZAS

Compound	pest or weed control at 140 g/ha [%]
COC(=O)c1nc(-c2ccc(N)cc2)c(F)cc1Cl [F247, Methyl 6-(4-aminophenyl)-3-chloro-5-fluoropicolinate]	0 to 29
COC(=O)c1nc(-c2cc(Cl)c(C(F)(F)F)cc2C)ccc1Cl [F371, Methyl 3-chloro-6-(5-chloro-2-methyl-4-(trifluoromethyl)phenyl)picolinate]	0 to 29

same assay, conditions: post-emergence, 336 h, blackgrass (Alopecurus myosuroides), 14 Days After Application, 140 g ai/ha, read-out: Visual Growth Reduction (%) ALOMY

Compound	pest or weed control at 140 g/ha [%]
COC(=O)c1nc(-c2ccc(N)cc2)c(F)cc1Cl [F247, Methyl 6-(4-aminophenyl)-3-chloro-5-fluoropicolinate]	0 to 29
COC(=O)c1nc(-c2cc(Cl)c(C(F)(F)F)cc2C)ccc1Cl [F371, Methyl 3-chloro-6-(5-chloro-2-methyl-4-(trifluoromethyl)phenyl)picolinate]	0 to 29

same assay, conditions: post-emergence, 336 h, canada thistle (Cirsium arvense), 14 Days After Application, 140 g ai/ha, read-out: Visual Growth Reduction (%) CIRAR

Compound	pest or weed control at 140 g/ha [%]
COC(=O)c1nc(-c2ccc(N)cc2)c(F)cc1Cl [F247, Methyl 6-(4-aminophenyl)-3-chloro-5-fluoropicolinate]	0 to 29
COC(=O)c1nc(-c2cc(Cl)c(C(F)(F)F)cc2C)ccc1Cl [F371, Methyl 3-chloro-6-(5-chloro-2-methyl-4-(trifluoromethyl)phenyl)picolinate]	0 to 29

same assay, conditions: post-emergence, 336 h, crabgrass (Digitaria sanguinalis), 14 Days After Application, 140 g ai/ha, read-out: Visual Growth Reduction (%) DIGSA

Compound	pest or weed control at 140 g/ha [%]
COC(=O)c1nc(-c2ccc(N)cc2)c(F)cc1Cl [F247, Methyl 6-(4-aminophenyl)-3-chloro-5-fluoropicolinate]	0 to 29
COC(=O)c1nc(-c2cc(Cl)c(C(F)(F)F)cc2C)ccc1Cl [F371, Methyl 3-chloro-6-(5-chloro-2-methyl-4-(trifluoromethyl)phenyl)picolinate]	45 to 59

same assay, conditions: post-emergence, 336 h, lambsquarters (Chenopodium album), 14 Days After Application, 140 g ai/ha, read-out: Visual Growth Reduction (%) CHEAL

Compound	pest or weed control at 140 g/ha [%]
COC(=O)c1nc(-c2ccc(N)cc2)c(F)cc1Cl [F247, Methyl 6-(4-aminophenyl)-3-chloro-5-fluoropicolinate]	60 to 74
COC(=O)c1nc(-c2cc(Cl)c(C(F)(F)F)cc2C)ccc1Cl [F371, Methyl 3-chloro-6-(5-chloro-2-methyl-4-(trifluoromethyl)phenyl)picolinate]	30 to 44

same assay, conditions: post-emergence, 336 h, redroot pigweed (Amaranthus retroflexus), 14 Days After Application, 140 g ai/ha, read-out: Visual Growth Reduction (%) AMARE

Compound	pest or weed control at 140 g/ha [%]
COC(=O)c1nc(-c2ccc(N)cc2)c(F)cc1Cl [F247, Methyl 6-(4-aminophenyl)-3-chloro-5-fluoropicolinate]	0 to 29
COC(=O)c1nc(-c2cc(Cl)c(C(F)(F)F)cc2C)ccc1Cl [F371, Methyl 3-chloro-6-(5-chloro-2-methyl-4-(trifluoromethyl)phenyl)picolinate]	30 to 44

same assay, conditions: post-emergence, 336 h, wild oat (Avena fatua), 14 Days After Application, 140 g ai/ha, read-out: Visual Growth Reduction (%) AVEFA

Compound	pest or weed control at 140 g/ha [%]
COC(=O)c1nc(-c2ccc(N)cc2)c(F)cc1Cl [F247, Methyl 6-(4-aminophenyl)-3-chloro-5-fluoropicolinate]	0 to 29
COC(=O)c1nc(-c2cc(Cl)c(C(F)(F)F)cc2C)ccc1Cl [F371, Methyl 3-chloro-6-(5-chloro-2-methyl-4-(trifluoromethyl)phenyl)picolinate]	0 to 29

same assay, conditions: post-emergence, 336 h, yellow nutsedge (Cyperus esculentus), 14 Days After Application, 140 g ai/ha, read-out: Visual Growth Reduction (%) CYPES

Compound	pest or weed control at 140 g/ha [%]
COC(=O)c1nc(-c2ccc(N)cc2)c(F)cc1Cl [F247, Methyl 6-(4-aminophenyl)-3-chloro-5-fluoropicolinate]	0 to 29
COC(=O)c1nc(-c2cc(Cl)c(C(F)(F)F)cc2C)ccc1Cl [F371, Methyl 3-chloro-6-(5-chloro-2-methyl-4-(trifluoromethyl)phenyl)picolinate]	0 to 29
